Experimental data taken from patent publication US5908924A, “Cloning and expression of the gene encoding thermoanaerobacter ethanolicus 39E secondary-alcohol dehydrogenase and enzyme biochemical characterization” (Michigan State University, priority 1997, dated 1999).
“Also recorded” adds a separate entry of the source. Like-named read-outs stand apart in the source and are kept apart here.

How the values were obtained:
[1] = molecular target: T1, recombinant T. ethanolicus 2° Adh (Thermoanaerobacter pseudethanolicus, UniProt B0KBL1); assay: standard 2° Adh activity assay (NADP+ reduction coupled to alcohol oxidation at 60° C.), Kmapp and Vmaxapp; details: for Vmaxapp / Km: 60° C.; for Km: read-out: Kmapp
T1 sequence (B0KBL1 2-353): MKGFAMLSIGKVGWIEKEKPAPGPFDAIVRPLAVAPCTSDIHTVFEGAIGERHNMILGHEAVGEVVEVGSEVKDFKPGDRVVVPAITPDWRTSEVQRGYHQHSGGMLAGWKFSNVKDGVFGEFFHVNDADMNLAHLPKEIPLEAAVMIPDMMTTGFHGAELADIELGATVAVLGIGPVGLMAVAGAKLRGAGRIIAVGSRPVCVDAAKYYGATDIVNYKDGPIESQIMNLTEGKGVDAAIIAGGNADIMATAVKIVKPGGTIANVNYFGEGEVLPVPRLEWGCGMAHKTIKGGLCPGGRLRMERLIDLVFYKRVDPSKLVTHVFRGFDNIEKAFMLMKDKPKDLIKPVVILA
Description: (§2) The enzyme was incubated at 55° C. for 15 min prior to activity determination unless otherwise indicated. Assays to determine Kmapp and Vmaxapp were conducted at 60° C. with substrate concentrations between 20×Kmapp and 0.2×Kmapp. Kinetic parameters were calculated from nonlinear best fits of the data to the Michaelis-Menten equation using Kinzyme software [26].

[2] = molecular target: T1, recombinant T. ethanolicus 2° Adh; assay: chemical modification (DTNB, DEPC) and reactivation by DTT with metal salts or EDTA; type: biochemical, Thermoanaerobacter ethanolicus 39E; design: homotetramer; activity recovery of DTNB-inactivated enzyme with DTT plus zinc: dose or concentration left out as unconfirmed; details: for effect on enzyme reactivation by DTT after DTNB inactivation: metal salts 0.01 mM to 1.0 mM, EDTA 0.5 mM to 3.0 mM
Description: Cysteine residues were reversibly modified using dithionitrobenzoate (DTNB) at 25° C. and 60° C.. […] Histidine residues were chemically modified with diethylpyrocarbonate (DEPC) by incubation with 20 mM or 40 mM DEPC in 50 mM phosphate buffer (pH 6.0) at 25° C. for 1.0 h and the reaction was quenched by addition of 0.5×volume of 0.5 M imidazole (pH 6.5).

T. brockii 2° Adh = details: sulfhydryl modification by p-chloromercuribenzoate; cited from earlier work
[3] = cited from earlier work; for time to complete inactivation: at 70° C.
[4] = substrate: NC(=O)c1ccc[n+]([C@@H]2O[C@H](COP(=O)([O-])OP(=O)(O)OC[C@H]3O[C@@H](n4cnc5c(N)ncnc54)[C@H](OP(=O)(O)O)[C@@H]3O)[C@@H](O)[C@H]2O)c1; assay: purified protein, by the assay type; details: other: 60° C.
Description: as §2

[5] = 2° Adh thermostability: residual activity after timed incubation at the desired temperatures; type: physicochemical
Description: (§1) 2° Adh thermostability was measured as the residual activity after timed incubation at the desired temperatures. Thermal inactivation was stopped by incubation for 30 min at 25° C., and samples were prepared for activity assays by preincubation at 55° C. for 15 min. Incubations were performed in […] (cat. #72.733.050, Sarstedt; Newton, N.C.) using […] protein in […]. Activity was determined using the unfractionated samples. The temperature effect on enzyme activity was studied using the substrates propan-2-ol or ethanol at 10×Kmapp concentrations.

[6] = 2° Adh activity: standard assay and temperature effect on enzyme activity (Arrhenius plots); type: biochemical; details: for Arrhenius plot discontinuity temperature: enzyme preincubated at 0° C. or 25° C.
Description: as §1
To study the effect of enzyme preincubation temperature on enzyme reaction rates, the 2° Adh was incubated at 0° C., 25° C., or 55° C. for 15 min prior to activity determinations in the temperature range 30-90° C. Tris-HCl buffer pH values were adjusted at 25° C. to be pH 8.0 at the temperature they were used (thermal correction factor=-0.031 ΔpH °C.^-1). The statistical significance of the differences between the Arrhenius plot slopes above and below the discontinuity temperatures was determined by covariance analysis.

Molecule: CCO [ethanol]
- Vmaxapp [1]: 10 U mg^-1
- Kmapp toward the 1° alcohol relative to the 2° alcohol ([1]; higher than for propan-2-ol): ~43 fold
- Km [1]: 47000 µM

Molecule: [Ca+2].[Cl-].[Cl-] [CaCl2]
- effect on enzyme reactivation by DTT after DTNB inactivation [2]: did not affect enzyme reactivation by DTT

Molecule: CCOC(=O)OC(=O)OCC [DEPC, diethylpyrocarbonate]
- enzyme inactivation by modification of histidine residues ([2]; 20 mM or 40 mM DEPC, pH 6.0, 25° C., 1.0 h): completely inactivated; also recorded: complete enzyme inactivation

Molecule: [Cl][Ni][Cl] [NiCl2]
- recovered activity of DTNB-inactivated enzyme with DTT plus added metal salt, of the initial activity ([2]; 60° C.): 15%

Molecule: [Cl-].[Cl-].[Zn+2] [ZnCl2]
- inactivation and recovery of activity of T. brockii 2° Adh (T. brockii 2° Adh): recovered activity only in the presence of ZnCl2
- activity recovery of DTNB-inactivated enzyme with DTT plus zinc ([2]; in the presence of ZnCl2): up to 48%

Molecule: [Cl-].[Na+] [NaCl]
- effect on enzyme reactivation by DTT after DTNB inactivation [2]: did not affect enzyme reactivation by DTT

Molecule: NAD(H)
- NAD(H) dependent activity [1]: no NAD(H) dependent activity was detected

Molecule: O=S(=O)([O-])[O-].[Cd+2] [CdSO4]
- effect on enzyme reactivation by DTT after DTNB inactivation [2]: did not affect enzyme reactivation by DTT

Molecule: [Cl-].[Cl-].[Mg+2] [MgCl2]
- effect on enzyme reactivation by DTT after DTNB inactivation [2]: did not affect enzyme reactivation by DTT

Molecule: O=C(O)c1cc[c]([Hg][Cl])cc1 [p-chloromercuribenzoate]
- inactivation and recovery of activity of T. brockii 2° Adh (T. brockii 2° Adh): inactivated

Molecule: [Cl][Fe][Cl] [FeCl2]
- effect on enzyme reactivation by DTT after DTNB inactivation [2]: did not affect enzyme reactivation by DTT

Molecule: CC(C)O [propan-2-ol]
- Vmaxapp [1]: 47 U mg^-1
- Km [1]: 1100 µM

Molecule: O=C([O-])CN(CCN(CC(=O)[O-])CC(=O)O)CC(=O)[O-].[Na+].[Na+].[Na+] [EDTA, (ethylenedinitrilo) tetraacetic acid trisodium salt]
- effect on enzyme reactivation by DTT after DTNB inactivation ([2]; trisodium salt): did not affect enzyme reactivation by DTT; also recorded: inability of EDTA to reduce the rate of reactivation

Molecule: [Cl-].[Cl-].[Co+2] [CoCl2]
- recovered activity of DTNB-inactivated enzyme with DTT plus added metal salt, of the initial activity ([2]; 60° C.): 10%

Molecule: O[C@H](CS)[C@H](O)CS (racemic) [DTT, dithiothreitol]
- recovery of initial activity of DTNB-inactivated enzyme ([2]; 60° C., DTT, no added metal): 34%

Molecule: [Cl][Mn][Cl] [MnCl2]
- effect on enzyme reactivation by DTT after DTNB inactivation [2]: did not affect enzyme reactivation by DTT

B1: recombinant T. ethanolicus 2° Adh (Thermoanaerobacter pseudethanolicus ATCC 33223) (protein)
chain: MKGFAMLSIGKVGWIEKEKPAPGPFDAIVRPLAVAPCTSDIHTVFEGAIGERHNMILGHEAVGEVVEVGSEVKDFKPGDRVVVPAITPDWRTSEVQRGYHQHSGGMLAGWKFSNVKDGVFGEFFHVNDADMNLAHLPKEIPLEAAVMIPDMMTTGFHGAELADIELGATVAVLGIGPVGLMAVAGAKLRGAGRIIAVGSRPVCVDAAKYYGATDIVNYKDGPIESQIMNLTEGKGVDAAIIAGGNADIMATAVKIVKPGGTIANVNYFGEGEVLPVPRLEWGCGMAHKTIKGGLCPGGRLRMERLIDLVFYKRVDPSKLVTHVFRGFDNIEKAFMLMKDKPKDLIKPVVILA
- activity retained after incubation ([3]; incubation for 30 minutes at 91° C.): 40%
- Km [4]: 11 µM

B2: T. ethanolicus 39E 2° Adh: thermophilic NADP(H)-dependent secondary-alcohol dehydrogenase of Thermoanaerobacter ethanolicus 39E (SEQ ID NO: 2), adhB gene expressed in E. coli, homotetramer (protein)
chain: MKGFAMLSIGKVGWIEKEKPAPGPFDAIVRPLAVAPCTSDIHTVFEGAIGERHNMILGHEAVGEVVEVGSEVKDFKPGDRVVVPAITPDWWTSEVQRGYHQHSGGMLAGWKFSNVKDGVFGEFFHVNDADMNLAHLPKEIPLEAAVMIPDMMTTGFHGAELADIELGATVAVLGIGPVGLMAVAGAKLRGAGRIIAVGSRPVCVDAAKYYGATDIVNYKDGPIESQIMNLTEGKGVDAAIIAGGNADIMATAVKIVKPGGTIANVNYFGEGEVLPVPRLEWGCGMAHKTIKGGLCPGGRLRMERLIDLVFYKPVDPSKLVTHVFQGFDNIEKAFMLMKDKPKDLIKPVVILA
- thermostability and thermophilicity compared with other 2° Adhs [5]: more thermostable and thermophilic
- half-life ([5]; at 90° C., recombinant enzyme): 1.7 h
- time for which detectable activity was retained ([5]; incubated at 90° C.): retained detectable activity for more than one hour
- activity retained after incubation ([5]; incubation for more than one hour at 90° C.): 100%
- difference between activation energies above and below the discontinuity (Δ), ethanol oxidation relative to propan-2-ol oxidation [6]: at least 3 fold
- initial activity ([6]; before DTNB modification): 54±3.0 U mg^-1
- Arrhenius plot form ([6]; ethanol oxidation, enzyme incubated at 55° C. prior to assay (FIG. 2B)): distinct discontinuity
- Arrhenius plot discontinuity temperature ([6]; ethanol oxidation): ~ 46 °C
- temperature range of activity ([6]; propan-2-ol oxidation, recombinant enzyme (FIG. 2A)): detected below 25 °C and increased to beyond 90 °C
- Arrhenius plot form ([6]; propan-2-ol oxidation, enzyme incubated at 55° C. prior to assay): linear from 25 °C to 90 °C
- Arrhenius plot discontinuity temperature ([6]; propan-2-ol oxidation): ~ 55 °C

B3: C. beijerinckii 2° Adh: mesophilic NADP(H)-dependent secondary-alcohol dehydrogenase of Clostridium beijerinckii (protein, UniProt P25984 1-351, looked up)
NADP-dependent isopropanol …: MKGFAMLGINKLGWIEKERPVAGSYDAIVRPLAVSPCTSDIHTVFEGALGDRKNMILGHEAVGEVVEVGSEVKDFKPGDRVIVPCTTPDWRSLEVQAGFQQHSNGMLAGWKFSNFKDGVFGEYFHVNDADMNLAILPKDMPLENAVMITDMMTTGFHGAELADIQMGSSVVVIGIGAVGLMGIAGAKLRGAGRIIGVGSRPICVEAAKFYGATDILNYKNGHIVDQVMKLTNGKGVDRVIMAGGGSETLSQAVSMVKPGGIISNINYHGSGDALLIPRVEWGCGMAHKTIKGGLCPGGRLRAEMLRDMVVYNRVDLSKLVTHVYHGFDHIEEALLLMKDKPKDLIKAVVIL
- time to complete inactivation [3]: ≤ 10 min
- time to complete inactivation ([3]; listed as C. beijerinckii): ≤ 10 min
